This is an account of results in patent US20060069123A1, “Substituted dipiperidine CCR2 antagonists” (priority 2004, published 2006).

Where two headings read alike, the source gives them in different places.

Test [1] has as its system Lewis rats. Conditions: orally, once per day, 3 mg/kg, days 10-14 (positive control).
The subject of test [2] is Lewis rats. Put plainly: Adjuvant-Induced Arthritis Model (Therapeutic Dosing from Day 12-16). Conditions: orally, once per day, 3 mg/kg (positive control), therapeutic study. It counts as in vivo. An excerpt:
Adjuvant-Induced Arthritis Model (Therapeutic Dosing from Day 12-16)

Test [3] relates to THP-1 cells. Nature of the test: MCP-1 Induced Chemotaxis in THP-1 Cells. It counts as cell-based. Conditions: THP-1 cells, MCP-1 0.01 μg/mL, 3 hours, read-out: Inhibition of MCP-1 Induced Chemotaxis IC50.
The target of a further test is T1, CCR2 (Homo sapiens, UniProt P41597).
T1 sequence (P41597 1-360 isoform P41597-2): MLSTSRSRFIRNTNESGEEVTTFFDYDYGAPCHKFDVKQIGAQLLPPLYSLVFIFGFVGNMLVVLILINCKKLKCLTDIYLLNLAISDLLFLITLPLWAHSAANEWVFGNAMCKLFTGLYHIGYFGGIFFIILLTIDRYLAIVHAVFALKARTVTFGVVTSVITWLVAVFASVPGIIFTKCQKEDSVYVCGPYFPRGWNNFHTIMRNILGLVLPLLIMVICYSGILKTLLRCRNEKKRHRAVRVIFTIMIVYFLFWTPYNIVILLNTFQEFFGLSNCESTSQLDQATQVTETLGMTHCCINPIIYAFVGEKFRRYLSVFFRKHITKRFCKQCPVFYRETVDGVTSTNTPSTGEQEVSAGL

For test [4], the system named is THP-1 cells. Conditions: for IC50: THP-1, read-out: Inhibition of MCP-1 Induced Calcium Ion Influx IC50.

On to `COc1ccc2c(c1)c(CC(=O)O)c(C)n2C(=O)c1ccc(Cl)cc1` [Indomethacin, indomethacin, reference compound], for which, in the test on Lewis rats [1], the “inhibited contralateral paw swelling” value is listed as 72% and the “inhibited swelling in the adjuvant-injected paws” value came to 38%. In the test on Lewis rats [2], the “inhibited adjuvant-injected paw swelling” value is recorded as 40% and the “inhibited contralateral paw swelling” value was 69%.
Consider `CSc1cccc(NC(=O)N2CCC(C(C(=O)O)N3CCC(c4c[nH]c5ccccc45)CC3)CC2)c1` (stereo not shown) [Cpd 144, [4-(1H-indol-3-yl)-piperidin-1-yl]-[1-(3-methylsulfanyl-phenylcarbamoyl)-piperidin-4-yl]-acetic acid], for which the figures for the IC50 with THP-1 cells [3] (Homo sapiens), against CCR2 and with THP-1 cells [4] (Homo sapiens) were 500 nM, 50 nM and 1300 nM, respectively.
Regarding `O=C(/C=C/c1ccc(Cl)c(Cl)c1)N1CCC(C(CO)N2CCC(c3c[nH]c4ccccc34)CC2)CC1` (stereo not shown) [Cpd 121, (2E)-3-(3,4-dichloro-phenyl)-1-(4-{2-hydroxy-1-[4-(1H-indol-3-yl)-piperidin-1-yl]-ethyl}-piperidin-1-yl)-propenone], the IC50 in the test with THP-1 cells [3] (Homo sapiens) was 12 nM; on CCR2 it was 0.2 nM; in the test on THP-1 cells [4] (Homo sapiens) it was 0.1 nM.
Consider `COc1ccc2c(C3CCN(C(CO)C4CCN(C(=O)/C=C/c5ccc(Cl)c(Cl)c5)CC4)CC3)c[nH]c2c1` (stereo not shown) [Cpd 163, (2E)-3-(3,4-dichloro-phenyl)-1-(4-{2-hydroxy-1-[4-(6-methoxy-1H-indol-3-yl)-piperidin-1-yl]-ethyl}-piperidin-1-yl)-propenone], for which the IC50 is 150 nM in the test on THP-1 cells [3] (Homo sapiens), 30 nM against CCR2 and 10 nM in the test on THP-1 cells [4] (Homo sapiens).
On the same counts, the results for `CC(=O)OCC(C1CCN(C(=O)/C=C/c2ccc(Cl)c(Cl)c2)CC1)N1CCC(c2c[nH]c3ccccc23)CC1` (stereo not shown) [Cpd 237, acetic acid 2-{1-[(2E)-3-(3,4-dichloro-phenyl)-acryloyl]-piperidin-4-yl}-2-[4-(1H-indol-3-yl)-piperidin-1-yl]-ethyl ester] are 110 nM, 215 nM and 70 nM.
On the same counts, the results for `COc1ccc(C2CCN(C(CO)C3CCN(C(=O)Nc4ccc(F)c(F)c4)CC3)CC2)cc1` (stereo not shown) [Cpd 141, 4-{2-hydroxy-1-[4-(4-methoxy-phenyl)-piperidin-1-yl]-ethyl}-piperidine-1-carboxylic acid (3,4-difluoro-phenyl)-amide] are 760 nM, 340 nM and 6900 nM.
As to `O=C(O)C(C1CCN(C(=O)Nc2cc(F)cc(C(F)(F)F)c2)CC1)N1CCC(c2c[nH]c3ccccc23)CC1` (stereo not shown) [Cpd 65, [1-(3-fluoro-5-trifluoromethyl-phenylcarbamoyl)-piperidin-4-yl]-[4-(1H-indol-3-yl)-piperidin-1-yl]-acetic acid], the figures for the IC50 in the test with THP-1 cells [3] (Homo sapiens), against CCR2 and in the test on THP-1 cells [4] (Homo sapiens) were 1600 nM, 353 nM and 120 nM, respectively.
In the case of `O=C(/C=C/c1cc(F)c(F)c(F)c1)N1CCC(C(CO)N2CCC(c3ccc(F)cc3)CC2)CC1` (stereo not shown) [Cpd 193], the IC50 stood at 1300 nM with THP-1 cells [3] (Homo sapiens), 140 nM at CCR2 and 140 nM in the test with THP-1 cells [4] (Homo sapiens).
As for `O=C(/C=C/c1ccc(Cl)c(Cl)c1)N1CCC(C(CO)N2CCC(c3nc4ccccc4[nH]3)CC2)CC1` (stereo not shown) [Cpd 176, (2E)-1-(4-{1-[4-(1H-benzoimidazol-2-yl)-piperidin-1-yl]-2-hydroxy-ethyl}-piperidin-1-yl)-3-(3,4-dichloro-phenyl)-propenone], the half-inhibitory concentration (IC50) stood at 90 nM with THP-1 cells [3] (Homo sapiens), 70 nM against CCR2 and 2610 nM in the test with THP-1 cells [4] (Homo sapiens).
The corresponding values for `O=C(c1cc2cc(Cl)ccc2o1)N1CCC(C(CO)N2CCC(c3c[nH]c4ccccc34)CC2)CC1` (stereo not shown) [Cpd 157, (5-chloro-benzofuran-2-yl)-(4-{2-hydroxy-1-[4-(1H-indol-3-yl)-piperidin-1-yl]-ethyl}-piperidin-1-yl)-methanone] are 460 nM, 440 nM and 320 nM.
As for `O=C(/C=C/c1cc(F)cc(F)c1)N1CCC(C(CO)N2CCC(c3n[nH]c4ccccc34)CC2)CC1` (stereo not shown) [Cpd 173, (2E)-3-(3,5-difluoro-phenyl)-1-(4-{2-hydroxy-1-[4-(1H-indazol-3-yl)-piperidin-1-yl]-ethyl}-piperidin-1-yl)-propenone], the half-maximal inhibitory concentration (IC50) in the test on THP-1 cells [3] amounted to 130 nM; on CCR2 (read-out: Inhibition of MCP-1 Binding IC50, 125I labeled MCP-1 binding to CCR2, THP-1 cells) it was 430 nM. The “Inhibition of MCP-1 Induced Calcium Ion Influx, percent inhibition” value with THP-1 cells [4] (test concentration of 25 μM, IC50 not obtained) was determined as 21%.
Consider `O=C(O)C(C1CCN(C(=O)Nc2cc(C(F)(F)F)cc(C(F)(F)F)c2)CC1)N1CCC(c2c[nH]c3ccccc23)CC1` (stereo not shown) [Cpd 136, [1-(3,5-bis-trifluoromethyl-phenylcarbamoyl)-piperidin-4-yl]-[4-(1H-indol-3-yl)-piperidin-1-yl]-acetic acid], for which the IC50 with THP-1 cells [3] (Homo sapiens) worked out at 140 nM; against CCR2, 80 nM; with THP-1 cells [4] (Homo sapiens), 130 nM.
The corresponding values for `COc1ccc(C2CCN(C(CO)C3CCN(C(=O)/C=C/c4ccc(F)c(F)c4)CC3)CC2)cc1` (stereo not shown) [Cpd 138, (2E)-3-(3,4-difluoro-phenyl)-1-(4-{2-hydroxy-1-[4-(4-methoxy-phenyl)-piperidin-1-yl]-ethyl}-piperidin-1-yl)-propenone] are 217 nM, 172 nM and 1290 nM.
For `O=C(/C=C/c1cc(F)cc(F)c1)N1CCC(C(CO)N2CCC(c3c[nH]c4ccc(O)cc34)CC2)CC1` (stereo not shown) [Cpd 259, (2E)-3-(3,5-difluoro-phenyl)-1-(4-{2-hydroxy-1-[4-(5-hydroxy-1H-indol-3-yl)-piperidin-1-yl]-ethyl}-piperidin-1-yl)-propenone], the 50% inhibitory concentration (IC50) in the test on THP-1 cells [3] (Homo sapiens) was 5 nM; at CCR2 it was 2 nM. For the same compound, in the test on THP-1 cells [4] (Homo sapiens, THP-1, read-out: Inhibition of MCP-1 Induced Calcium Ion Influx, percent inhibition), the inhibition at 25 µM is 88%.
For the compound `Nc1ccc2[nH]cc(C3CCN(C(CO)C4CCN(C(=O)/C=C/c5cc(F)c(F)c(F)c5)CC4)CC3)c2n1` (stereo not shown) [Cpd 191, (2E)-1-(4-{1-[4-(5-amino-1H-pyrrolo[3,2-b]pyridin-3-yl)-piperidin-1-yl]-2-hydroxy-ethyl}-piperidin-1-yl)-3-(3,4,5-trifluoro-phenyl)-propenone], the results for the IC50 in the test with THP-1 cells [3] (Homo sapiens), against CCR2 and in the test with THP-1 cells [4] (Homo sapiens) were 150 nM, 100 nM and 170 nM, respectively.
